Data published in patent publication US8008260B2, “Methods of protecting against apoptosis using lipopeptides” (Cleveland Clinic Foundation, priority 2005, dated 2011).
Peptide text beside a SMILES is read from it. * marks the point of attachment. Propyl(2R-PamO,3-PamO) = CCCCCCCCCCCCCCCC(=O)OC[C@H](C*)OC(=O)CCCCCCCCCCCCCCC; X1 = CCCCCCCCCCCCCCCC(=O)OCC(C*)OC(=O)CCCCCCCCCCCCCCC

Legend:
[1] = target: T1, TLR2/TLR6 heterodimer (Homo sapiens, UniProt O60603+Q9Y2C9); test: NF-κB-dependent reporter activity in 293 cells expressing the TLR2/TLR6 heterodimer; type: cell-based; set-up: NF-κB activation: scale not given here; settings: in vitro activity, 293 cells expressing TLR2/TLR6
T1 construct: expressed in transfected cells; host or cells: 293 cells
T1 sequence (O60603 21-784): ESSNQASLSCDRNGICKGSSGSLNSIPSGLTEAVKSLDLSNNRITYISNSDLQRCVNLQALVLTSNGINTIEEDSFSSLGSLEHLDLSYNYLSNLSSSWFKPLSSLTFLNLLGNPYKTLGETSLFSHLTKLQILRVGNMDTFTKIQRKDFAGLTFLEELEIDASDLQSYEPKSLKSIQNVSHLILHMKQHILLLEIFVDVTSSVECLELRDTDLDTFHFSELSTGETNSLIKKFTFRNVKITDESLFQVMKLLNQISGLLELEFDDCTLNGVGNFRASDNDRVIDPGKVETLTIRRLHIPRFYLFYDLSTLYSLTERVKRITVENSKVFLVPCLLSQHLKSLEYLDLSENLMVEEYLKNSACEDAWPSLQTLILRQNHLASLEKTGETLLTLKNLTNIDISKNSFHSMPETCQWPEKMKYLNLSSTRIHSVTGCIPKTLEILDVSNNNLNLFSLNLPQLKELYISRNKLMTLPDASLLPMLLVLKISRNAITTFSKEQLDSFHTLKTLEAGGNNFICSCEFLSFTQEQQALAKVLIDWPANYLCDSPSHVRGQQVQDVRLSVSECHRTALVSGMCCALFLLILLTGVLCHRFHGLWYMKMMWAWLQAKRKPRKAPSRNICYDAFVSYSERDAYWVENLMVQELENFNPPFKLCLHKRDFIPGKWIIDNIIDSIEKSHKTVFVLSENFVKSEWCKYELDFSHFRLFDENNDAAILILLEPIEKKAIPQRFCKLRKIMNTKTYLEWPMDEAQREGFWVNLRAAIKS
T1 sequence (Q9Y2C9 32-796): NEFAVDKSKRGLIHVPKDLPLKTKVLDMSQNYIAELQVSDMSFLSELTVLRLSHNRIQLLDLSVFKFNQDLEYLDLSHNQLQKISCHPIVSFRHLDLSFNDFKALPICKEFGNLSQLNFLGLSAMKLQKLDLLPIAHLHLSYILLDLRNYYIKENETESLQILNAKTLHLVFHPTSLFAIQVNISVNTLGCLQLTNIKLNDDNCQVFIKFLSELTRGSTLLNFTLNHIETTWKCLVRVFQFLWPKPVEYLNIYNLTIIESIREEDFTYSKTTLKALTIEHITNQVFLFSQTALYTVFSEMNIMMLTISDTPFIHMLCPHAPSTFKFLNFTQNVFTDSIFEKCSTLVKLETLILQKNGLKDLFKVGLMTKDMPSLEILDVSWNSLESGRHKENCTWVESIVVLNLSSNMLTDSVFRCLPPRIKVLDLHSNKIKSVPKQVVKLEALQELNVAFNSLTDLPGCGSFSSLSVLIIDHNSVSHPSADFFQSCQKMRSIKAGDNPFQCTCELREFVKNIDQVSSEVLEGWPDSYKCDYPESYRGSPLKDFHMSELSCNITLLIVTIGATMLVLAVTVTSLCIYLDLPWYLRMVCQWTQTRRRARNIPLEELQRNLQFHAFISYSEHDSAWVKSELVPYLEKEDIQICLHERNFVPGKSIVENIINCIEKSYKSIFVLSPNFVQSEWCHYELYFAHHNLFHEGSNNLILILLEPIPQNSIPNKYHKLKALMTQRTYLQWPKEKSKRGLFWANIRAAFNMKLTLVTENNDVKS
Description: NF-κB-dependent reporter activity was measured in 293 cells that expressed the TLR2/YLR6 heterodimer. […] None of the non-palmitoylated corresponding peptides activated the NF-κB reporter (FIG. 18B). The peptide component of CBLB617 has a (−4) charge, which should prevent it from interacting with negatively charged cell surface markers. […] Table 5 summarizes the in vitro activity and solubility of all the compounds.

[2] = Solubility of the lipopeptides

Row | Structure (SMILES) | NF-κB activation [1] | Solubility [2]
1 | CCCCCCCCCCCCCCCC(=O)OCC(CSC[C@H](N)C(=O)NCC(=O)N[C@@H](CCC(N)=O)C(=O)N[C@@H](Cc1c[nH]cn1)C(=O)N[C@@H](Cc1c[nH]cn1)C(=O)N[C@@H](Cc1c[nH]cn1)C(=O)O)OC(=O)CCCCCCCCCCCCCCC (stereo partly drawn) [CBLB602] (H-C(X1)GQHHH-OH) | 0 | Poor
2 | CCCCCCCCCCCCCCCC(=O)OCC(CSC[C@H](N)C(=O)NCC(=O)N[C@@H](CCC(N)=O)C(=O)N[C@@H](Cc1c[nH]cn1)C(=O)N[C@@H](Cc1c[nH]cn1)C(=O)N[C@@H](CCSC)C(=O)O)OC(=O)CCCCCCCCCCCCCCC (stereo partly drawn) [CBLB603] (H-C(X1)GQHHM-OH) | 0 | Poor
3 | CCCCCCCCCCCCCCCC(=O)OCC(CSC[C@H](N)C(=O)NCC(=O)N[C@@H](CO)C(=O)N[C@@H](Cc1c[nH]cn1)C(=O)N[C@@H](Cc1c[nH]cn1)C(=O)N[C@@H](CCSC)C(=O)O)OC(=O)CCCCCCCCCCCCCCC (stereo partly drawn) [CBLB604] (H-C(X1)GSHHM-OH) | 0 | Poor
4 | CCCCCCCCCCCCCCCC(=O)OCC(CSC[C@H](N)C(=O)N[C@@H](CO)C(=O)N[C@@H](CCC(N)=O)C(=O)N[C@@H](CCSC)C(=O)N[C@@H](Cc1c[nH]cn1)C(=O)N[C@@H](Cc1c[nH]cn1)C(=O)O)OC(=O)CCCCCCCCCCCCCCC (stereo partly drawn) [CBLB605] (H-C(X1)SQMHH-OH) | 2 | Poor
5 | CCCCCCCCCCCCCCCC(=O)OC[C@H](CSC[C@H](N)C(=O)NCC(=O)N[C@@H](CC(=O)O)C(=O)N1CCC[C@H]1C(=O)N[C@@H](CCCCN)C(=O)N[C@@H](Cc1c[nH]cn1)C(=O)N1CCC[C@H]1C(=O)N[C@@H](CCCCN)C(=O)N[C@@H](CO)C(=O)N[C@@H](Cc1ccccc1)C(=O)O)OC(=O)CCCCCCCCCCCCCCC [CBLB606] (H-C(Propyl(2R-PamO,3-PamO))GDPKHPKSF-OH; C-terminus assumed) | 100 | Poor
6 | CCCCCCCCCCCCCCCC(=O)OCC(CSC[C@H](N)C(=O)NCC(=O)N[C@@H](CC(=O)O)C(=O)N1CCC[C@H]1C(=O)N[C@@H](CCCCN)C(=O)N[C@@H](Cc1c[nH]cn1)C(=O)N1CCC[C@H]1C(=O)N[C@@H](CCCCN)C(=O)N[C@@H](CO)C(=O)N[C@@H](Cc1ccccc1)C(=O)N[C@H](C(=O)NCC(=O)N[C@@H](Cc1c[nH]c2ccccc12)C(=O)N[C@H](C(=O)N[C@@H](C)C(=O)O)C(C)C)[C@@H](C)O)OC(=O)CCCCCCCCCCCCCCC (stereo partly drawn) [CBLB607] (H-C(X1)GDPKHPKSFTGWVA-OH) | 2 | Poor
7 | CCCCCCCCCCCCCCCC(=O)OCC(CSC[C@H](N)C(=O)N[C@@H](Cc1ccccc1)C(=O)N[C@@H](CCC(=O)O)C(=O)N1CCC[C@H]1C(=O)N1CCC[C@H]1C(=O)N1CCC[C@H]1C(=O)N[C@@H](C)C(=O)N[C@H](C(=O)N[C@H](C(=O)N[C@H](C(=O)N[C@@H](CCCCN)C(=O)N[C@@H](CO)C(=O)N[C@@H](CCCCN)C(=O)O)[C@@H](C)O)[C@@H](C)O)[C@@H](C)O)OC(=O)CCCCCCCCCCCCCCC (stereo partly drawn) [CBLB608] (H-C(X1)FEPPPATTTKSK-OH) | 2 | Excellent
8 | CCCCCCCCCCCCCCCC(=O)OCC(CSC[C@H](N)C(=O)NCC(=O)N[C@@H](CCC(=O)O)C(=O)N[C@H](C(=O)N[C@@H](CC(=O)O)C(=O)N[C@@H](CCCCN)C(=O)N[C@@H](CCC(=O)O)C(=O)NCC(=O)N[C@@H](CCCCN)C(=O)N[C@H](C(=O)N[C@H](C(=O)N[C@@H](CCCNC(=N)N)C(=O)N[C@H](C(=O)N[C@@H](Cc1ccccc1)C(=O)N[C@@H](CC(=O)O)C(=O)N[C@@H](CC(N)=O)C(=O)N[C@@H](CO)C(=O)N[C@@H](Cc1ccccc1)C(=O)O)[C@@H](C)CC)[C@@H](C)CC)[C@@H](C)CC)[C@@H](C)O)OC(=O)CCCCCCCCCCCCCCC (stereo partly drawn) [CBLB611] (H-C(X1)GETDKEGKIIRIFDNSF-OH) | 0 | 
